For data set [1], the target named is T1, Solute carrier family 22 member 12 (Homo sapiens, UniProt Q96S37).
T1 sequence (Q96S37 whole entry): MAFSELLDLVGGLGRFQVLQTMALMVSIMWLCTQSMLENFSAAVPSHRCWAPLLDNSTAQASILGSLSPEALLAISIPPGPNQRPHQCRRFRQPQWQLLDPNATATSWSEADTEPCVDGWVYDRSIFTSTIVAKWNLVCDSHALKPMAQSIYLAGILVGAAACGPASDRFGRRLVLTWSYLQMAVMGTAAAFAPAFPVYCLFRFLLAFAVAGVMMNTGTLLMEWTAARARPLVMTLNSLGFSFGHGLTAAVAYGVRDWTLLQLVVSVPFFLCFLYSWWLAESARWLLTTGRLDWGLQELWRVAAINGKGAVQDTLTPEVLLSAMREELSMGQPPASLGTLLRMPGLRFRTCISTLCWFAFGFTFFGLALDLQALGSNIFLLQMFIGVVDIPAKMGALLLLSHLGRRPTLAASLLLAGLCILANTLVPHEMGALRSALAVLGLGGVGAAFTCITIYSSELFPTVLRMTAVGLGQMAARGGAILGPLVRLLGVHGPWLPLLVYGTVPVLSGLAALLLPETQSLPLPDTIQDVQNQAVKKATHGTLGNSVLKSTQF
The data set can be described thus: Inhibition of URAT1 (unknown origin)-mediated 14C uric acid uptake expressed in HEK293 cells using 14C uric acid as substrate at 10 uM by liquid scintillation counting analysis. It counts as cell-based.

Data set [2] addresses T2, Xanthine dehydrogenase/oxidase (Bos taurus, UniProt P80457). Put plainly: Inhibition of bovine XO assessed as inhibition of uric acid production using xanthine as substrate preincubated for 25 mins followed by substrate addition and measured for first 2 mins by spectrophotometric analysis.
Data set [3] concerns Rattus norvegicus. The data set can be described thus: Hypouricemic activity against potassium oxonate-induced hyperuricemia Sprague-Dawley rat model assessed as decrease in serum uric acid level at 10 mg/kg, ig administered 1 hr post-potassium oxonate challenge and measured after 1 to 5 hrs. It counts as functional, organism-based. To be noted: time 1-5 hrs.
Data set [4] concerns the target T2, Xanthine dehydrogenase/oxidase. The data set can be described thus: Potency index, ratio of allopurinol IC50 to test compound IC50 for inhibition of bovine XO. Conditions: cattle.
The target is the same in data set [5]. Put plainly: Mixed inhibition of bovine XO assessed as increase in Km with decrease in Vmax using xanthine as substrate by Lineweaver-Burk plot analysis. Conditions: cattle.
Data set [6] has as its system Rattus norvegicus. Put plainly: Hypouricemic activity against potassium oxonate-induced hyperuricemia Sprague-Dawley rat model assessed as decrease in serum uric acid level at 10 mg/kg, ig administered 1 hr post-potassium oxonate challenge and measured after 3 hrs. It counts as functional. Conditions: po.
Data set [7] deals with Rattus norvegicus. The data set can be described thus: Hypouricemic activity against potassium oxonate-induced hyperuricemia Sprague-Dawley rat model assessed as decrease in AUC of serum uric acid level at 10 mg/kg, ig administered 1 hr post-potassium oxonate challenge and measured after 1 to 5 hrs. It counts as functional. Conditions: po, time 1-5 hrs.
For data set [8], the target named is T2, Xanthine dehydrogenase/oxidase. The data set can be described thus: Inhibition of bovine XO assessed as inhibition of uric acid production using xanthine as substrate at 10 uM preincubated for 25 mins followed by substrate addition and measured for first 2 mins by spectrophotometric analysis. Conditions: cattle, time 27 min.

Calls of active or inactive are those of the source. No cut-off for these calls is given here.

What is called inhibition is the drop in the measured response relative to a control, in per cent. What is called IC50 is the concentration needed to halve the response being measured. Broadly, the inhibition in vivo is the percentage by which the read-out fell short of the control.

T2 sequence (P80457 whole entry): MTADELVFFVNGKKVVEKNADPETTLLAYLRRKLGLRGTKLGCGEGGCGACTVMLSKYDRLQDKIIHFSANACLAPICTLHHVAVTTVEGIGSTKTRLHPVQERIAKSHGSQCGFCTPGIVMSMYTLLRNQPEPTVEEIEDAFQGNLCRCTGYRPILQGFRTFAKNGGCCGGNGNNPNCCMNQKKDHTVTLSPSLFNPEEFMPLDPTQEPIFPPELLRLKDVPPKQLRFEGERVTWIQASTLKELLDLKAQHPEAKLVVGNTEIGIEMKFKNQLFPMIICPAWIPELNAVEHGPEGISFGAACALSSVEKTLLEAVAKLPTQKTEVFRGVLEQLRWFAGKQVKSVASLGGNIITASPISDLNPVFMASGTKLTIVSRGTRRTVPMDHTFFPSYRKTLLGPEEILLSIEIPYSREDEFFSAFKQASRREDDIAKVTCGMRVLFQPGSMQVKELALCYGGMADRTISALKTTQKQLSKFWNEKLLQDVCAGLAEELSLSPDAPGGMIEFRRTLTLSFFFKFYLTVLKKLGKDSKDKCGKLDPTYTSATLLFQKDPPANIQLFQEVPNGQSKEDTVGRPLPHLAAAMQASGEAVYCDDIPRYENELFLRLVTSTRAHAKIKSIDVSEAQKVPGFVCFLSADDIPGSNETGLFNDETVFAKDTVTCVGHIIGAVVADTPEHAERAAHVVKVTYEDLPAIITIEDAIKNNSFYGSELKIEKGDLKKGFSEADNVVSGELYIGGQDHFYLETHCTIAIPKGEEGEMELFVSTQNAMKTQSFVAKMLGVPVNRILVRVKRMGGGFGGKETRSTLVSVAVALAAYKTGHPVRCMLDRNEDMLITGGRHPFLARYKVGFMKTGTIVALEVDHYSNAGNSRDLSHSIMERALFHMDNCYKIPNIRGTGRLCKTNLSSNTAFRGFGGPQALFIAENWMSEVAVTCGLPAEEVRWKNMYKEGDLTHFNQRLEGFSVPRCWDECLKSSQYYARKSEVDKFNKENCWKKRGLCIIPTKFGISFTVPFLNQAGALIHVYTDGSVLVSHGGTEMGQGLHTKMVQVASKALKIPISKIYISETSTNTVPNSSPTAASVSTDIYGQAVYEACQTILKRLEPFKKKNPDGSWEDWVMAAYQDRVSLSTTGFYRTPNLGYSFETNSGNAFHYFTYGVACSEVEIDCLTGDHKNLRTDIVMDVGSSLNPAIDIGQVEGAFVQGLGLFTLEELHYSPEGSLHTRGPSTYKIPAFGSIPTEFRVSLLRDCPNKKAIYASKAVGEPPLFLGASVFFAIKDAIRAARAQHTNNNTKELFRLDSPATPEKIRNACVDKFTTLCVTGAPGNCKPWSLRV

Turning to `CC(C)(C)c1ccc(Cn2cc(C(=O)Nc3ccccc3C(=O)O)c3ccccc32)cc1`, in data set [1], the inhibition at 10 µM was -4.8%.
`O=C(O)CSc1nnc(Br)n1-c1ccc(C2CC2)c2ccccc12`: in data set [1], the inhibition at 10 µM was determined as 47%.
Regarding `N#Cc1ccc2c(C(=O)Nc3ccccc3C(=O)O)cn(Cc3ccccn3)c2c1`, in data set [1], the inhibition at 10 µM was determined as 65.7%.
Same read-out and setting: as for `O=C(O)c1ccccc1NC(=O)c1cn(Cc2ccncc2)c2ccccc12`, the figure is 68.4%; as for `O=C(O)c1ccccc1NC(=O)c1cn(C(=O)c2ccccc2)c2ccccc12`, 10.9%; as for `O=C(O)c1ccccc1NC(=O)c1cn(Cc2cnccn2)c2ccccc12`, 52.7%.
Same read-out and setting: as for `O=C(O)c1ccccc1NC(=O)c1cn(Cc2ccc(F)cc2)c2ccccc12`, the figure is 73.4%.
Consider `O=C(O)c1ccccc1NC(=O)c1cn(Cc2ccc(Br)cc2)c2ccccc12`, for which, in data set [1], the inhibition at 10 µM came out at 73.6%.
On to `Cc1ccc2c(c1)c(C(=O)Nc1ccccc1C(=O)O)cn2Cc1ccccn1`, for which, in data set [1], the inhibition at 10 µM came to 46.8%.
As for `N#Cc1ccc2c(c1)c(C(=O)Nc1cc[nH]c1C(=O)O)cn2Cc1ccccn1`, the inhibition at 10 µM in data set [1] was 51%. In data set [2], the IC50 came out at 2.67 µM.
Turning to `O=C(O)c1ccccc1NC(=O)c1cn(Cc2cccnc2)c2ccccc12`, the inhibition at 10 µM in data set [1] was determined as 43.1%.
Take `O=C(O)c1ccccc1NC(=O)c1cn(Cc2ccccc2)c2ccccc12`: the inhibition at 10 µM in data set [1] turned out to be 41.3%.
`O=C(O)c1ccccc1NC(=O)c1cn(Cc2cccc(F)c2)c2ccccc12`: in data set [1], the inhibition at 10 µM was 48%.
The same measure, in the same setting: as for `O=C(O)c1ccccc1NC(=O)c1c[nH]c2ccccc12`, the figure is 33.2%; as for `O=C(O)c1ccccc1NC(=O)c1cn(Cc2ccccn2)c2ccccc12`, 81.4%; as for `O=C(O)c1ccccc1NC(=O)c1cn(Cc2ccc(Cl)cc2)c2ccccc12`, 69.4%.
As to `Oc1ncnc2[nH]ncc12`, the outcome in the data set with Rattus norvegicus [3] was Active.
For `O=C(O)c1ccccc1NC(=O)c1cn(Cc2ccccc2F)c2ccccc12`, the inhibition at 10 µM in data set [1] turned out to be 40.7%.
Still for that read-out and setting: as for `Cc1ccc(Cn2cc(C(=O)Nc3ccccc3C(=O)O)c3ccccc32)cc1`, the figure is 61%.
Consider `N#Cc1ccc2c(c1)c(C(=O)Nc1ncc(C(=O)O)s1)cn2Cc1ccccn1`, for which the inhibition at 10 µM in data set [1] was 15.9%. In addition, in data set [2], the IC50 was 2.12 µM.
`COc1ccc(/C=C/C(=O)Nc2ccccc2C(=O)O)cc1OC`: the inhibition at 10 µM in data set [1] came out at 44.9%. The result in the data set on Rattus norvegicus [3] was Active.
Regarding `O=C(O)c1ccccc1NC(=O)c1cn(Cc2cscn2)c2ccccc12`, the inhibition at 10 µM in data set [1] was found to be 64.4%.
`O=C(O)c1ccccc1NC(=O)c1cn(Cc2cccnn2)c2ccccc12`: the inhibition at 10 µM in data set [1] stood at 10.4%.
In the case of `O=C(O)c1cccc(NC(=O)c2c[nH]c3ccccc23)c1`, the inhibition at 10 µM in data set [1] came to 25.8%.
Same read-out and setting: the same measure for `Cc1ccc2c(C(=O)Nc3ccccc3C(=O)O)cn(Cc3ccccn3)c2c1`: 49.1%.
For the compound `O=C(O)c1ccc(NC(=O)c2c[nH]c3ccccc23)cc1`, the inhibition at 10 µM in data set [1] was found to be 0.1%.
Take `COc1ccc(Cn2cc(C(=O)Nc3ccccc3C(=O)O)c3ccccc32)cc1`: in data set [1], the inhibition at 10 µM is 53.9%.
For `N#Cc1ccc2c(c1)c(C(=O)Nc1scnc1C(=O)O)cn2Cc1ccccn1`, the inhibition at 10 µM in data set [1] was determined as 48%. Further, the IC50 in data set [2] was 1.01 µM. Also, the “Ratio IC50” value in data set [4] is on record as 9.1. The “inhibition (INH)” value in data set [5] is “Active”. The figures for the inhibition in vivo at 10 mg/kg in the data set on Rattus norvegicus [6] and with Rattus norvegicus [7] were 22.3% and 25.8%, respectively.
For the compound `O=C(O)c1ccccc1NC(=O)c1cn(Cc2ncccn2)c2ccccc12`, in data set [1], the inhibition at 10 µM is 49.9%.
For the compound `N#Cc1ccc2c(c1)c(C(=O)Nc1ccccc1C(=O)O)cn2Cc1ccccn1`, the inhibition at 10 µM was found to be 60.7% in data set [1] and 33.5% in data set [8].
As to `O=C(O)c1ccccc1NC(=O)c1cn(Cc2ccccn2)c2cc(F)ccc12`, the inhibition at 10 µM in data set [1] amounted to 51.6%.
Regarding `O=C(O)c1ccccc1NC(=O)c1cn(Cc2cccs2)c2ccccc12`, the inhibition at 10 µM in data set [1] is 56.7%.
On the same count and under the same terms, the same measure for `O=C(O)c1ccccc1NC(=O)c1cn(Cc2ccccn2)c2ccc(F)cc12`: 51.1%.

These data come from ChEMBL document CHEMBL5620380, “Identification of 5-[5-cyano-1-(pyridin-2-ylmethyl)-1H-indole-3-carboxamido] thiazole-4-carboxylic acid as a promising dual inhibitor of urate transporter 1 and xanthine oxidase” (Eur J Med Chem, 2023).
